Measurements reported in ChEMBL document CHEMBL1129301, “Synthesis and biological evaluation of DL-4,4-difluoroglutamic acid and DL-gamma,gamma-difluoromethotrexate” (J Med Chem, 1996).

Key:
CCRF-CEM [1] = assay: cells; details: Homo sapiens, 3 h
CCRF-CEM [2] = assay: Growth inhibition of CCRF-CEM subline resistant to MTX solely as a result of decreased MTX influx during continuous (120 h) exposure.; format: functional; details: Homo sapiens, read-out: ED50 (the source's name)
CCRF-CEM [3] = assay: Growth inhibition of CCRF-CEM subline resistant to MTX solely as a result of a 25-fold increase in wild-type DHFR activity during continuous (120 h) exposure to MTX; format: functional; details: Homo sapiens, read-out: ED50 (the source's name)
CCRF-CEM [4] = assay: Growth inhibition of CCRF-CEM subline resistant to MTX solely as a result of decreased polyglutamylation during continuous (120 h) exposure.; format: functional; details: Homo sapiens, read-out: ED50 (the source's name)
Dihydrofolate reductase = molecular target: T1, Dihydrofolate reductase (Homo sapiens, UniProt P00374); assay: Inhibitory activity against purified human dihydrofolate reductase (DHFR) in human leukemia cells (CCRF-CEM)
T1 sequence (P00374 whole entry): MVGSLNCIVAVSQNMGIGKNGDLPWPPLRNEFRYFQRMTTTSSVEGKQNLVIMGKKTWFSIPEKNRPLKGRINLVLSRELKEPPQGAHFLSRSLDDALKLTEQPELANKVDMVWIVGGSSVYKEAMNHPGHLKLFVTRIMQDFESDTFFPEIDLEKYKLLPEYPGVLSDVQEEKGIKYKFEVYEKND

CCRF-CEM [5] = assay: Compound was evaluated for growth inhibition of parental CCRF-CEM during continuous (120 h) exposure to MTX; format: functional; details: Homo sapiens, read-out: ED50 (the source's name)

| Structure (SMILES) | IC50 (CCRF-CEM [1]) | EC50 (CCRF-CEM [2]) | EC50 (CCRF-CEM [3]) | EC50 (CCRF-CEM [4]) | IC50 (Dihydrofolate reductase) | EC50 (CCRF-CEM [5]) |
| --- | --- | --- | --- | --- | --- | --- |
| Nc1nc(N)c2nc(CNc3ccc(C(=O)N[C@@H](CCC(=O)O)C(=O)O)cc3)cnc2n1 [AMINOPTERIN] | 3000 nM | – | – | – | – | – |
| CN(Cc1cnc2nc(N)nc(N)c2n1)c1ccc(C(=O)N[C@@H](CCC(=O)O)C(=O)O)cc1 [METHOTREXATE] | – | 2550 nM | 655 nM | – | – | – |
| CN(Cc1cnc2nc(N)nc(N)c2n1)c1ccc(C(=O)NC(CC(F)(F)C(=O)O)C(=O)O)cc1 (stereo not drawn) | – | 2150 nM | 700 nM | 24.3 nM | 1530 nM | 29 nM |
